Legend:
[1] = molecular target: T1, NMDA receptor (GRIN1/GRIN2A subunits) (Homo sapiens, UniProt Q05586+Q12879); assay: NMDA potentiation, whole-cell patch clamp of HEK cells expressing NMDA receptor; format: cell-based; details: for activation at 0.1 µM: HEK293, 0.1 uM compound, read-out: NMDA 1a2A (%) Potentiation 0.1 uM; for activation at 0.1 µM / activation at 1 µM / NMDA 1a2A (%) Potentiation 0.1 uM / NMDA 1a2A (%) Potentiation 1 uM: HEK cells, 30 μM NMDA and 5.0 μM Glycine; for activation at 1 µM: HEK293, 1 uM compound, read-out: NMDA 1a2A (%) Potentiation 1 uM; for NMDA 1a2A (%) Potentiation 0.1 uM: 0.1 uM compound; for NMDA 1a2A (%) Potentiation 1 uM: 1 uM compound
T1 construct: expressed in transfected cells
Experimental: (§1) NMDA potentiation was assessed using either whole cell patch clamp of mammalian cells which expressed NMDA receptors, or using two-electrode voltage clamp (TEVC) of Xenopus Laevis oocytes expressing NMDA receptors.
NMDA/Glycine peak and steady-state currents were recorded from stably transfected cells expressing the NMDA receptor and the modulatory effects of the test items on these currents were investigated.
Cells were stably transfected with human GRIN1 (variant NR1-3). These cells were transiently transfected (Lipofectamine™) with GRIN2A cDNA and CD8 (pLeu) antigene cDNA. About 24-72 hours following transfection 1 μl Dynabeads M-45 CD8 was added to identify successfully transfected cells (Jurman et al., Biotechniques (1994) 17:876-881). Cells were passaged to a confluence of 50-80%. Cells were seeded onto Poly-L-Lysine coated cover slips covered with culture complete medium in a 35 mm culture dish. Confluent clusters of cells are electrically coupled (Pritchett et al., Science (1988), 242:1306-8). Because responses in distant cells are not adequately voltage clamped and because of uncertainties about the extent of coupling (Verdoorn et al., Neuron (1990), 4:919-28), cells were cultivated at a density that enables single cells (without visible connections to neighboring cells) to be measured. Cells were incubated at 37° C. in a humidified atmosphere with 5% CO2 (rel. humidity about 95%). The cells were continuously maintained in and passaged in sterile culture flasks containing a 1:1 mixture of Dulbecco's modified eagle medium and nutrient mixture F-12 (D-MEM/F-12 1×, liquid, with L-Glutamine) supplemented with 9% fetal bovine serum and 0.9% Penicillin/Streptomycin solution. The complete medium was supplemented with 3.0 μg/ml Puromycin.
Whole cell currents were measured with HEKA EPC-10 amplifiers using PatchMaster software. Cell culture dishes for recordings were placed on the dish holder of the microscope and continuously perfused (1 ml/min) with “bath solution” (NaCl 137 mM, KCl 4 mM, CaCl2 1.8 mM, MgCl2 1 mM, HEPES 10 mM, D-Glucose 10 mM, pH (NaOH) 7.4). All solutions applied to cells including the pipette solution were maintained at room temperature (19° C.-30° C.). After formation of a Gigaohm seal between the patch electrodes and transfected individual HEK 293 cells (pipette resistance range: 2.5 MΩ-6.0 MΩ; seal resistance range: >1 GQ) the cell membrane across the pipette tip was ruptured to assure electrical access to the cell interior (whole-cell patch-configuration). At this point the bath solution is switched to “NMDA bath solution” (NaCl 137 mM, KCl 4 mM, CaCl2 2.8 mM, HEPES 10 mM, D-Glucose 10 mM, Cremophore 0.02%, pH (NaOH) 7.4). NMDA inward currents were measured upon application of 30 μM NMDA (and 5.0 μM Glycine) to patch-clamped cells (2 applications) for 5 s. The cells were voltage clamped at a holding potential of −80 mV. For the analysis of test articles, NMDA receptors were stimulated by 30 μM NMDA and 5.0 μM Glycine after sequential pre-incubation of increasing concentrations of the test article. Pre-incubation duration was 30 s. Stimulation duration was 5 s Test articles were dissolved in DMSO to form stock solutions of 0.1 mM and 1 mM. Test articles were diluted to 0.1 μM and 1 μM in “NMDA bath solution”. Both concentrations of test articles were tested on each cell. The same concentration was applied at least three times or until the steady state current amplitude was reached. Every day one cell was tested with 50 μM PREGS (positive control) using the same application protocol to test whether cells were successfully transfected with NMDA receptors.

[2] = molecular target: NMDA receptor (GRIN1/GRIN2A) (Homo sapiens, UniProt Q05586+Q12879); assay: NMDA potentiation, two electrode voltage clamp (TEVC) of Xenopus oocytes expressing NMDA receptor; format: cell-based; details: 10 μM compound, 3 μM Glutamate and Glycine
Experimental: as §1
The Two Electrode Voltage Clamp (TEVC) technique was used to investigate the effects of compounds (10 μM) on the NMDA receptor (GRIN1/GRIN2A) expressed in Xenopus oocytes. Glutamate/Glycine peak and steady-state currents were recorded from oocytes that expressed the NMDA receptor and the modulatory effects of the test items on these currents were investigated.
Ovaries were harvested from Xenopus Laevis females that had been deeply anesthetized by cooling at 4° C. and immersion in Tricaine methanesulfonate (MS-222 at a concentration of 150 mg/L) in sodium bicarbonate (300 mg/L). Once anesthetized the animal was decapitated and pithed following the rules of animal rights from the Geneva canton. A small piece of ovary was isolated for immediate preparation while the remaining part was placed at 4° C. in a sterile Barth solution containing in mM NaCl 88, KCl 1, NaHCO3 2.4, HEPES 10, MgSO4·7H2O 0.82, Ca(NO3)2·4H2O 0.33, CaCl2·6H2O 0.41, at pH 7.4, and supplemented with 20 μg/ml of kanamycin, 100 unit/ml penicillin and 100 μg/ml streptomycin. All recordings were performed at 18° C. and cells were super-fused with medium containing in mM: NaCl 82.5, KCl 2.5, HEPES 5, CaCl2·2H2O, ·6H2O 1, pH 7.4.
Oocytes were injected with either cDNAs encoding for the human GRIN1 and GRIN2A subunits, using a proprietary automated injection device (Hogg et al., J. Neurosci. Methods, (2008) 169: 65-75) and receptor expression was assessed using electrophysiology at least two days later. The ratio of cDNA injection for GRIN1 and GRIN2A was 1:1. Electrophysiological recordings were made using an automated process equipped with standard TEVC and data were captured and analyzed using a proprietary data acquisition and analysis software running under Matlab (Mathworks Inc.). The membrane potential of the oocytes was maintained at −80 mV throughout the experiments. To explore the effects of proprietary compounds, currents were evoked by applying 3 μM Glutamate and […] Glycine for 10 s. Oocytes were then washed for 90 s before being exposed to the test article at a concentration of 10 μM for 120 s. Following this, 3 μM Glutamate and […] Glycine were immediately reapplied for 10 s. Potentiation of both the peak current and the steady state current was assessed. For statistical analysis values were computed either with Excel (Microsoft) or Matlab (Mathworks Inc.). To obtain mean measurements with standard deviations, all experiments were carried out using at least three cells.
Glutamate was prepared as a concentrated stock solution ([…]) in water and then diluted in the recording medium to obtain the desired test concentration. Glycine was prepared as a stock solution at 1 M in water. Compounds were prepared as stock solution ([…]) in DMSO and then diluted in the recording medium to obtain the desired test concentration.

NMDA receptor (GRIN1/GRIN2A), sequence (Q12879 23-1464, other chains not shown): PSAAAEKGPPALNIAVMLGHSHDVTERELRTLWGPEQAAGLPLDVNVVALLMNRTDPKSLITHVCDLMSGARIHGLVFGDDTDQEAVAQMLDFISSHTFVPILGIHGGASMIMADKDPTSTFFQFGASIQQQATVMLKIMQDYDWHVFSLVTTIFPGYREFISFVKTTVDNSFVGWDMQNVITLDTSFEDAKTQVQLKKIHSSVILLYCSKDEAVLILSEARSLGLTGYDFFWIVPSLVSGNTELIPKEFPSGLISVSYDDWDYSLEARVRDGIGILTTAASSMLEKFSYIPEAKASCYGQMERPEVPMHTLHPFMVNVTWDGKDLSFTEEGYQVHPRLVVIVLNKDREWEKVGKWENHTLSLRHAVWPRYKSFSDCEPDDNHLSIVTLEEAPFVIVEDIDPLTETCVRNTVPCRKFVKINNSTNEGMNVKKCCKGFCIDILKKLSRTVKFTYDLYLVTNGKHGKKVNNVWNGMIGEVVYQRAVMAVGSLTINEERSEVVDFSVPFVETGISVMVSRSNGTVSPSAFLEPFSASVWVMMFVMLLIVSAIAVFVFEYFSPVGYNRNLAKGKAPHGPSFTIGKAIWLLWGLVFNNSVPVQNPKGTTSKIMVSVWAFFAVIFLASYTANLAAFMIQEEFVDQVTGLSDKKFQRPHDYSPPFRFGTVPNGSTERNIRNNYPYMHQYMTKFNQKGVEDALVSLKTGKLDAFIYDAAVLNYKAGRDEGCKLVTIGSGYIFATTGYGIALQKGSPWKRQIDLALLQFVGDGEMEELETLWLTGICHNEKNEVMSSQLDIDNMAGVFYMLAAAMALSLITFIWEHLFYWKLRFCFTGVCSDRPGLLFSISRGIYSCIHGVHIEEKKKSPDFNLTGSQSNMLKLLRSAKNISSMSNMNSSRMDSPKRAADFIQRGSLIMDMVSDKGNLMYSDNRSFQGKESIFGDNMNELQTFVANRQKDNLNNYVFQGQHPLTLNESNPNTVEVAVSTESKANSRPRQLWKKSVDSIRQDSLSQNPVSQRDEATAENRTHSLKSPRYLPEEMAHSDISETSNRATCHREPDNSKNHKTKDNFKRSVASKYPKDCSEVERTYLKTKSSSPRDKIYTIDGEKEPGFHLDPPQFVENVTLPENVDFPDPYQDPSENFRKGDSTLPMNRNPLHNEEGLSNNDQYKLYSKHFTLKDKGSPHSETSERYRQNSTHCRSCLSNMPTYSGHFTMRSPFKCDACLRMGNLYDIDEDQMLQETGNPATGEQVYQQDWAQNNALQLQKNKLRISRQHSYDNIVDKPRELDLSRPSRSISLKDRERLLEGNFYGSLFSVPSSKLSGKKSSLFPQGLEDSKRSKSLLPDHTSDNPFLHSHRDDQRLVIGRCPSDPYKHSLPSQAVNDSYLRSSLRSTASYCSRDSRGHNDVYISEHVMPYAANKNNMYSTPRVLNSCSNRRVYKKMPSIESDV
T1 sequence (Q12879 23-1464, other chains not shown): as above

SMILES	activation at 0.1 µM [1] [%]	activation at 1 µM [1] [%]	further results
C[C@H](CCC(O)C(F)(F)F)[C@H]1CC[C@H]2[C@@H]3CC[C@H]4C[C@@](C)(O)CC[C@]4(C)[C@H]3CC[C@]12C (stereo partly shown) [Compound 1-12]	10 to 75	75 to 150	–
CCCCC(C)(O)CC[C@@H](C)[C@H]1CC[C@H]2[C@@H]3CC=C4C[C@@](C)(O)CC[C@]4(C)[C@H]3CC[C@]12C (stereo partly shown) [Compound 7-2]	10 to 75	75 to 150	–
CCC(C)(O)CC[C@@H](C)[C@H]1CC[C@H]2[C@@H]3CC[C@H]4C[C@@](C)(O)CC[C@]4(C)[C@H]3CC[C@]12C (stereo partly shown) [Compound 4-7]	–	–	NMDA 1a2A (%) Potentiation 0.1 uM [1]: B (“B” indicates potentiation of >75% to 150%); NMDA 1a2A (%) Potentiation 1 uM [1]: C (“C” indicates potentiation of >150 to 250%)
CCC(C)(O)CC[C@@H](C)[C@H]1CC[C@H]2[C@@H]3CC[C@H]4C[C@@](C)(O)CC[C@]4(C)[C@H]3CC[C@]12C (stereo partly shown) [Comparison compound 5, reference compound]	–	–	NMDA 1a2A (%) Potentiation 0.1 uM [1]: A (“A” indicates 10-75% potentiation); NMDA 1a2A (%) Potentiation 1 uM [1]: A (“A” indicates 10-75% potentiation)
CC(CCC(C)(C)O)[C@H]1CC[C@H]2[C@@H]3CC=C4C[C@@](C)(O)CC[C@]4(C)[C@H]3CC[C@]12C (stereo partly shown) [Comparison compound 2, reference compound]	75 to 150	> 250	–
CC(C)C(C)(O)CC[C@@H](C)[C@H]1CC[C@H]2[C@@H]3CC[C@H]4C[C@@](C)(O)CC[C@]4(C)[C@H]3CC[C@]12C (stereo partly shown) [Compound 8-3]	75 to 150	> 250	–
C[C@H](CC[C@H](O)C(F)(F)F)[C@H]1CC[C@H]2[C@@H]3CC=C4C[C@@](C)(O)CC[C@]4(C)[C@H]3CC[C@]12C [Compound 1-15]	75 to 150	150 to 250	–
CCCC(C)(O)CC[C@@H](C)[C@H]1CC[C@H]2[C@@H]3CC[C@H]4C[C@@](C)(O)CC[C@]4(C)[C@H]3CC[C@]12C (stereo partly shown) [Compound 5-3]	10 to 75	75 to 150	–
CCCC(C)(O)CC[C@@H](C)[C@H]1CC[C@H]2[C@@H]3CC=C4C[C@@](C)(O)CC[C@]4(C)[C@H]3CC[C@]12C (stereo partly shown) [Compound 5-2]	75 to 150	150 to 250	–
CC(CCC(C)(C)O)[C@H]1CC[C@H]2[C@@H]3CC[C@H]4C[C@@](C)(O)CC[C@]4(C)[C@H]3CC[C@]12C (stereo partly shown) [Comparison compound 3, reference compound]	75 to 150	150 to 250	–
CC(C)(O)CCC[C@H]1CC[C@H]2[C@@H]3CC[C@H]4C[C@@](C)(O)CC[C@]4(C)[C@H]3CC[C@]12C [Comparison compound 4, reference compound]	10 to 75	75 to 150	loss of NMDA potentiation compared to Comparison Compound 3 ([1]; measured at 0.1 μM concentration): five fold
C[C@H](CCC(O)C(F)(F)F)[C@H]1CC[C@H]2[C@@H]3CC=C4C[C@@](C)(O)CC[C@]4(C)[C@H]3CC[C@]12C (stereo partly shown) [Compound 1-11]	150 to 250	150 to 250	–
CC(C)C(C)(O)CC[C@@H](C)[C@H]1CC[C@H]2[C@@H]3CC=C4C[C@@](C)(O)CC[C@]4(C)[C@H]3CC[C@]12C (stereo partly shown) [Compound 8-2]	75 to 150	150 to 250	–
C[C@H](CCC(C)(O)C1CC1)[C@H]1CC[C@H]2[C@@H]3CC=C4C[C@@](C)(O)CC[C@]4(C)[C@H]3CC[C@]12C (stereo partly shown) [Compound 9-2]	150 to 250	150 to 250	–
CCC(C)(O)CC[C@@H](C)[C@H]1CC[C@H]2[C@@H]3CC=C4C[C@@](C)(O)CC[C@]4(C)[C@H]3CC[C@]12C (stereo partly shown) [Compound 4-6]	150 to 250	150 to 250	–
C=CCC(C)(O)CC[C@@H](C)[C@H]1CC[C@H]2[C@@H]3CC=C4C[C@@](C)(O)CC[C@]4(C)[C@H]3CC[C@]12C (stereo partly shown) [Compound 6-2]	75 to 150	150 to 250	–
CC(C)[C@@](C)(O)CC[C@@H](C)[C@H]1CC[C@H]2[C@@H]3CC[C@H]4C[C@@](C)(O)CC[C@]4(C)[C@H]3CC[C@]12C [Compound 8-5]	–	–	activation at 10 µM [2]: 10 to 50%
CC[C@]1(O)CC[C@@]2(C)C(=CC[C@H]3[C@@H]4CC[C@H]([C@H](C)CC[C@H](O)C(F)(F)F)[C@@]4(C)CC[C@@H]32)C1 [Compound 2-8]	–	–	activation at 10 µM [2]: 50 to 100%
C[C@H](CCC(C)(O)C(F)(F)F)[C@H]1CC[C@H]2[C@@H]3CC=C4C[C@@](C)(O)CC[C@]4(C)[C@H]3CC[C@]12C (stereo partly shown) [Compound 3-2]	–	–	activation at 10 µM [2]: > 100%
COCC[C@@](C)(O)CC[C@@H](C)[C@H]1CC[C@H]2[C@@H]3CC[C@H]4C[C@@](C)(O)CC[C@]4(C)[C@H]3CC[C@]12C [Compound 10-19]	–	–	activation at 10 µM [2]: 10 to 50%
C[C@H](CC[C@](C)(O)CCO)[C@H]1CC[C@H]2[C@@H]3CC[C@H]4C[C@@](C)(O)CC[C@]4(C)[C@H]3CC[C@]12C [Compound 10-18]	–	–	activation at 10 µM [2]: 50 to 100%
CC(O)CCC(C)[C@H]1CC[C@H]2[C@@H]3CC=C4C[C@@H](O)CC[C@]4(C)[C@H]3CC[C@]12C (stereo partly shown) [Comparison compound 1, reference compound]	10 to 75	75 to 150	–

Source: patent publication US12617814B2, “Neuroactive steroids and methods of use thereof” (Sage Therapeutics, LLC, priority 2013, dated 2026)
